The text below walks through data of ChEMBL document CHEMBL1201862, “PubChem BioAssay data set” (2004).

Experiment [1] deals with H9c2. Nature of the experiment: cells. It is filed as functional, cell-based. The note with it: Rattus norvegicus, H9c2, Myocardium.
Experiment [2] has as its target T1, High affinity choline transporter 1 (Homo sapiens, UniProt Q9GZV3).
T1 sequence (Q9GZV3 whole entry): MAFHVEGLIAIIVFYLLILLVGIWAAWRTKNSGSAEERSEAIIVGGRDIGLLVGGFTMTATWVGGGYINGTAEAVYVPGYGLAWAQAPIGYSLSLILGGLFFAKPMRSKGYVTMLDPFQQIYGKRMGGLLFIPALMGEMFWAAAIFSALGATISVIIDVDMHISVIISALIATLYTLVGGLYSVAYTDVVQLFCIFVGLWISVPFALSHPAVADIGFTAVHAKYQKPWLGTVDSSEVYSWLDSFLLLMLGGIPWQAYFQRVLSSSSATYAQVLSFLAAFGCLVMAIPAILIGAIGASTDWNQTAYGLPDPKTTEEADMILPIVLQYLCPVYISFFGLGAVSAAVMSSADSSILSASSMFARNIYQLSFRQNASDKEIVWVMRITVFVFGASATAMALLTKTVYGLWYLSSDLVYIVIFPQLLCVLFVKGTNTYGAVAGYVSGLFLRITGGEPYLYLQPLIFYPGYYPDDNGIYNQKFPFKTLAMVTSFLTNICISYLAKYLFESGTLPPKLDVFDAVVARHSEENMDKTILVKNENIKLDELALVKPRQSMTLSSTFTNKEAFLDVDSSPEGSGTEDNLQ
Nature of the experiment: human choline transporter blockers, potency – cell-based, 5-point CRC, membrane potential dye, dose response (AID 504840). The class given is functional.

Experiment [3] has as its target T2, Ubiquitin-conjugating enzyme E2 N (Homo sapiens, UniProt P61088).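 Further: Dose-response confirmation in a TR-FRET assay detecting UBC13-driven polyubiquitin chain formation, inhibition measured.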
T2 sequence (P61088 whole entry): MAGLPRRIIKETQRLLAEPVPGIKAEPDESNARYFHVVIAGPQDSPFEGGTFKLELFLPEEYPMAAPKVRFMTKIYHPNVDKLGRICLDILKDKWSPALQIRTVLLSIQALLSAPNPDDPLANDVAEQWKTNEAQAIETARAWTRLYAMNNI
It is filed as functional.

In experiment [4] the target is Induced myeloid leukemia cell differentiation protein Mcl-1 (Homo sapiens, UniProt Q07820). The class given is functional.
The target of experiment [5] is T3, Short transient receptor potential channel 4 (Mus musculus, UniProt Q9QUQ5).
T3 sequence (Q9QUQ5 whole entry): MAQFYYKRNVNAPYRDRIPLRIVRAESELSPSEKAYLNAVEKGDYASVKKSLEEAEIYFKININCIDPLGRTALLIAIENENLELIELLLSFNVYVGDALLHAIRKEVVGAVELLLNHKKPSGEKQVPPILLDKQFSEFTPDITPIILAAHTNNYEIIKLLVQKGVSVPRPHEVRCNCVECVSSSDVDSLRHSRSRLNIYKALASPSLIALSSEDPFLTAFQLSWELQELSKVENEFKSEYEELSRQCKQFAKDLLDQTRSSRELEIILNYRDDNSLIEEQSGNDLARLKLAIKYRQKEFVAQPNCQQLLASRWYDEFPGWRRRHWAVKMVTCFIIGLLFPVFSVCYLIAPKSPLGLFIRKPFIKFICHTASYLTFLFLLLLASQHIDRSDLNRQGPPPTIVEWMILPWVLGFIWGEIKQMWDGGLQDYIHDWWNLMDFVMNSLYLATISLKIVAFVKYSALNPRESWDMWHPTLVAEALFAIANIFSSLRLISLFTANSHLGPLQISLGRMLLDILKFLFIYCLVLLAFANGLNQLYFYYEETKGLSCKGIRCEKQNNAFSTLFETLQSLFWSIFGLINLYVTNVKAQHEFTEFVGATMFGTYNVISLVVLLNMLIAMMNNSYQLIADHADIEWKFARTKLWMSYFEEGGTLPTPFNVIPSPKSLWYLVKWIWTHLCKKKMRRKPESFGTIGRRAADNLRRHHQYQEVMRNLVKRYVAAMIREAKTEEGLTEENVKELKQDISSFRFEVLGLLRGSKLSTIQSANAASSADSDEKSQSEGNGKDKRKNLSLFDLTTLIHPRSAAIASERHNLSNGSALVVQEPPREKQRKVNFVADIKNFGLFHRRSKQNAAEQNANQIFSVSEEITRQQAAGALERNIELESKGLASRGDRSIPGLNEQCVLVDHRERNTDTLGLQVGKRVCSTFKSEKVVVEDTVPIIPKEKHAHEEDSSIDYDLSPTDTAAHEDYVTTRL
Nature of the experiment: block of DAMGO-driven TRPC4 calcium entry – cell-based, HEK293 TRPC4/mu-opioid, Fluo-4 calcium, dose response (AID 434942).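 Further: potency of inhibitors blocking the TRPC4 calcium response.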 It is filed as functional.

In experiment [6] the target is T4, Carboxy-terminal domain RNA polymerase II polypeptide A small phosphatase 1 (Homo sapiens, UniProt Q9GZU7).
T4 sequence (Q9GZU7 whole entry): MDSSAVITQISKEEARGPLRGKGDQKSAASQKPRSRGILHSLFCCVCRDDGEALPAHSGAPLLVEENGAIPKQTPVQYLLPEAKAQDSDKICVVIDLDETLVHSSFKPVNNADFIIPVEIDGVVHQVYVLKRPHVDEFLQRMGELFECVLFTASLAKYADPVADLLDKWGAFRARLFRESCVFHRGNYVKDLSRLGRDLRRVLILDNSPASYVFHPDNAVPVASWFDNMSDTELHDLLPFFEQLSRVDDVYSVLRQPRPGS
Nature of the experiment: CTDSP1 inhibitors, concentration-response, biochemical, absorbance readout, ultra-high-throughput screen actives (AID 540297). The class given is functional.

A short description of experiment [7]: viability of PTEN-deleted HCT116 cells – cell-based, HCT116 PTEN knockout, dose response (AID 1047).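 Further: HCT116 colon tumor cells with PTEN knocked out; cells exposed to compound for 60 hours before readout.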 It is filed as functional.
Experiment [8] can be described thus: viability of HCT116 lacking mutant beta-catenin – cell-based, human colon tumor, dose response (AID 1045).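 Further: HCT116 colon tumor cells with beta catenin knocked out; cells exposed to compound for 60 hours.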 It is filed as functional.
The subject of experiment [9] is Vero. Nature of the experiment: cells. The note with it: Chlorocebus sabaeus. The class given is functional.
In experiment [10] the test system is CHO. Nature of the experiment: CHO cell viability loss, potency – luminescence, cytotoxicity control for TLR9-MyD88 binding inhibitor project, dose response (AID 588339).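 Further: CHO cells stably coexpressing TLR9 and MyD88 fusions from primary screen; compound exposure lasted 48 hours before viability readout.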 The class given is functional, cell-based, hamster. The note with it: Cricetulus griseus.
Experiment [11] deals with T5, Fatty acid synthase (Homo sapiens, UniProt P49327). The experiment can be described thus: inhibition of human FAS-TE enzyme activity – biochemical, endpoint fluorescence intensity, uHTS hits, dose response (AID 624327).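 Further: fluorescence from hydrolysis of an O-methyl fluorescein acyl ester substrate by the enzyme.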 It is filed as functional.
The nature of experiment [12]: cells. It is filed as functional.
Experiment [13] concerns the target T5, Fatty acid synthase. Nature of the experiment: inhibition of human FAS-TE enzyme activity – biochemical, kinetic fluorescence intensity, dose response (AID 624326).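 Further: rate of fluorescence rise from hydrolysis of a fluorogenic O-methyl fluorescein ester substrate.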 The class given is functional.
Experiment [14] deals with HEK293. Nature of the experiment: EBV LMP1 TES2 canonical NF-kB signalling blockers – cell-based, HEK293, luciferase, cherry-pick, dose response (AID 588343). It is filed as functional. The note with it: Homo sapiens.
Experiment [15] deals with P388/ADR. Nature of the experiment: cells. It is filed as functional. The note with it: Mus musculus.
The test system of experiment [16] is P388. The experiment can be described thus: cells. The class given is functional. The note with it: Mus musculus.
The subject of experiment [17] is SN12K1. The experiment can be described thus: cells. The note with it: Homo sapiens. It is filed as functional.
The target in experiment [18] is Paired box protein Pax-8 (Homo sapiens, UniProt Q06710). The experiment can be described thus: PAX8 transcriptional activity inhibition in RMG-I – RMG-I cells, luciferase, cherry-pick, dose response (AID 687027).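 Further: luciferase reporter driven by Pax8 target thyroperoxidase promoter measured by SteadyGlo luminescence.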 The class given is functional, cell-based.
The nature of experiment [19]: HIV-1 AD8 envelope cell-cell fusion blockers – cherry-pick, dose response (AID 652062).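 Further: luciferase signal from cell-cell fusion driven by HIV-1 clade B AD8 Env; potency is for inhibitors of fusion seen as a drop in luminescence.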 It is filed as functional, cell-based.
Experiment [20] is described as follows: blockers of HIV-1 envelope-mediated cell-cell fusion – cherry-pick, dose response (AID 652057). It is filed as functional, cell-based.

The source made the active and inactive calls. Where only a bound is given, the exact number is not on record here.

Chain of Induced myeloid leukemia cell differentiation protein Mcl-1 (Q07820 whole entry): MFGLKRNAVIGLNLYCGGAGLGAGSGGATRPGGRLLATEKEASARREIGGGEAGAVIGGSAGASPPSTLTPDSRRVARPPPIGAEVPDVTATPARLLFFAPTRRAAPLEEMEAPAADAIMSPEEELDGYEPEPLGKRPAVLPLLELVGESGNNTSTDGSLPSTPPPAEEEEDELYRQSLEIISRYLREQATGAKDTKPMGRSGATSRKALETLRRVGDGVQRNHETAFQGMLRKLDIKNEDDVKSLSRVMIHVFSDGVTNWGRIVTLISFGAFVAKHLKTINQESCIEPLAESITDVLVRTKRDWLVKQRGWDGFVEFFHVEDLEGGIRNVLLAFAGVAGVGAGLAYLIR
T5 sequence (P49327 whole entry): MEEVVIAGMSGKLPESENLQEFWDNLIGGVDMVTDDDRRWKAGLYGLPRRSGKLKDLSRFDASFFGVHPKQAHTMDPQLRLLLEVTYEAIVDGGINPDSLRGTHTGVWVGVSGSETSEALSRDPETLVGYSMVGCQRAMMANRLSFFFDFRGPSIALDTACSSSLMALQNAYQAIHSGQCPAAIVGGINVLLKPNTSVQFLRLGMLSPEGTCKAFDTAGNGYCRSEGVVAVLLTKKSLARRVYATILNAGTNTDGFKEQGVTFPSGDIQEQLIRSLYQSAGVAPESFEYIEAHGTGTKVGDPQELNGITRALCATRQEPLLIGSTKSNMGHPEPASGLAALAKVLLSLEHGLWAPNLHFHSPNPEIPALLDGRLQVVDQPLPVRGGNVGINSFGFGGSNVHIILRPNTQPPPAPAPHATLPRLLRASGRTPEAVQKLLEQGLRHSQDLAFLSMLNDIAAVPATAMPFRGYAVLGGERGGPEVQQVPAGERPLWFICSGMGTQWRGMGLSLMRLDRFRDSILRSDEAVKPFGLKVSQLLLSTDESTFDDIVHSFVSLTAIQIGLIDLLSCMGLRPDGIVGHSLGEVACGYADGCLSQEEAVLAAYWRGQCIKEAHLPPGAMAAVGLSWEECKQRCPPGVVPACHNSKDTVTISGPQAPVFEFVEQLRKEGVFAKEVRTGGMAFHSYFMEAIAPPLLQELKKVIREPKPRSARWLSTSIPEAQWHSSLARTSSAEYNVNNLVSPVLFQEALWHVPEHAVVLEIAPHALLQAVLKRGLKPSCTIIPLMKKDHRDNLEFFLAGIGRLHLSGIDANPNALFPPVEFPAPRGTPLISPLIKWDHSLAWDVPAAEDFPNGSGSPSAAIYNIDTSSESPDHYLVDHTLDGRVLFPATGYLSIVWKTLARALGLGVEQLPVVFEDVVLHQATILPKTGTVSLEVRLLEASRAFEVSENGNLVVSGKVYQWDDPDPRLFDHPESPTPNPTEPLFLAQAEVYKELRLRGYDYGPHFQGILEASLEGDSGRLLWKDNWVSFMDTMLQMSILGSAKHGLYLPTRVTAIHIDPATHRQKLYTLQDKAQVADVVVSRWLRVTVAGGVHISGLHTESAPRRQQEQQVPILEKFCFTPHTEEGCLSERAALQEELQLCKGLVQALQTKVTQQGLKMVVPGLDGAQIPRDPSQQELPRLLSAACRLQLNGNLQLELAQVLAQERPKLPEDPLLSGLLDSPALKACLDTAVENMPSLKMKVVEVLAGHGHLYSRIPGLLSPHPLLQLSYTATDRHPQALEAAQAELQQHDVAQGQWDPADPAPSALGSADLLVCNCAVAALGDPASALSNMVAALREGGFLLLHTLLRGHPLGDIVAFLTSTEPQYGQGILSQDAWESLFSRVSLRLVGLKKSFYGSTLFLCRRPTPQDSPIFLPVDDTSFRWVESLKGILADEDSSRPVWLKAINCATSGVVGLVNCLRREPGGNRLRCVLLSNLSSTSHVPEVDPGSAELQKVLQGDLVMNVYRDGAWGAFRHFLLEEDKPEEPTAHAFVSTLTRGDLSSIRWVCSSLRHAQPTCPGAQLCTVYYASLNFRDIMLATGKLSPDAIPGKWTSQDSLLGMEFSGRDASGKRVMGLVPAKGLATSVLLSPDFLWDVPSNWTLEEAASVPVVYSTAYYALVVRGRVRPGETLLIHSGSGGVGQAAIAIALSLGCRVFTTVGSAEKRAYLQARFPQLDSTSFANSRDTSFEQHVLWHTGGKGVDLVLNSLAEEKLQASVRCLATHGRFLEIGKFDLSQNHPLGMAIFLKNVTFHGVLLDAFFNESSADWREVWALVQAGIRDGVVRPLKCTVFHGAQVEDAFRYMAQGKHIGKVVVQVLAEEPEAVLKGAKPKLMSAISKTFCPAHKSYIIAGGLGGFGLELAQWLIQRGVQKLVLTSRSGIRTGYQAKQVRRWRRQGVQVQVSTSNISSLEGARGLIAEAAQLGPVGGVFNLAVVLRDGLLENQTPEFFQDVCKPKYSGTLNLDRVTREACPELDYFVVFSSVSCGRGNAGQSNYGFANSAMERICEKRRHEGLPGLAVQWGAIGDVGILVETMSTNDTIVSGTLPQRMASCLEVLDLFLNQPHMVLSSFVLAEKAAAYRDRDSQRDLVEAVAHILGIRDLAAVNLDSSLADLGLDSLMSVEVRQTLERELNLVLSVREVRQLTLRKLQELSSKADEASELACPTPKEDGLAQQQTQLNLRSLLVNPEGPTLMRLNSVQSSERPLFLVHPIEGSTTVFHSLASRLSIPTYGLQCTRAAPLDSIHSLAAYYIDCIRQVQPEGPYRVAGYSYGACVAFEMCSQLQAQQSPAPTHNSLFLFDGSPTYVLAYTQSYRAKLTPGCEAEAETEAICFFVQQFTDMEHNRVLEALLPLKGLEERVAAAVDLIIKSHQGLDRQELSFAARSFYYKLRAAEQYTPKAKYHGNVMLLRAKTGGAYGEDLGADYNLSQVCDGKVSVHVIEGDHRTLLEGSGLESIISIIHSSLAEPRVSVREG
Chain of Paired box protein Pax-8 (Q06710 whole entry, the tested form may be a part): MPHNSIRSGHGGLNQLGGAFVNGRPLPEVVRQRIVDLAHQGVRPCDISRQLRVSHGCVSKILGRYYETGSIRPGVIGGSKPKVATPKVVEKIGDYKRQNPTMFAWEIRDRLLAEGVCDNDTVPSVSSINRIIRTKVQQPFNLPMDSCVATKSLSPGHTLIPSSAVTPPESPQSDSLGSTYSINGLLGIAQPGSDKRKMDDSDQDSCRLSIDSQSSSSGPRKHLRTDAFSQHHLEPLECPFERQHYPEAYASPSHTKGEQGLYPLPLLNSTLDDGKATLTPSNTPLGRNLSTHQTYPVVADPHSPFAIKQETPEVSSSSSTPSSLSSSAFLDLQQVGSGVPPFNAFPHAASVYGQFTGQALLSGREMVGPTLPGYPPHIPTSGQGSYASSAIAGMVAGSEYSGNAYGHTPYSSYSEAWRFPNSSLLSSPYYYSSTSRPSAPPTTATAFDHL

The IC50 is the concentration that inhibits the measured activity by half. For the molecule `COc1cc(NC(=O)c2csc(-c3ccncc3)n2)cc(C(=O)Nc2cccc(C(F)(F)F)c2)c1`, the IC50 is > 79 µM (inactive) in experiment [1] and 6.44 µM (active) in experiment [2].
In the case of `O=C1c2cccc3cccc(c23)C(=O)N1CCN1CCN(CC(O)COc2ccccc2)CC1` (stereo not drawn), in experiment [3], the IC50 is > 20 µM (inactive).
In the case of `O=C(Nc1ccccc1Cl)c1cnccn1`, in [4], the IC50 is 8.55 µM (not active).
The term EC50 denotes the concentration giving half of the maximal effect. Regarding `COC(=O)c1cccc(NC(S)=Nc2cccc(Cl)c2Cl)c1`, the EC50 in [5] is 8.41 µM (active).
On to `CC(=O)N(c1ccc(Cl)cc1)c1c[nH]c2ccccc12`, for which the EC50 in [5] is 18.8 µM (active).
As for `Cc1ccc(O)c(C(=O)c2cnn(C(=O)COc3ccc(Cl)cc3)c2)c1`, the IC50 in [6] was 3.89 µM (active).
Take `CN(CCNC(=O)CCCOc1cc(=O)n(C)c2ccccc12)Cc1ccccc1`: in experiment [3], the IC50 is > 20 µM (inactive).
Regarding `O=C(COC(=O)c1ccccc1NCCO)Nc1cccc(S(=O)(=O)NC2=NCCCCC2)c1`, the IC50 in experiment [6] is 10.2 µM (active).
Take `COc1cccc(C(=O)Nc2ccc3nc(N4CCN(c5ncccn5)CC4)cc(C)c3c2)c1OC`: the EC50 was 5.74 µM (active) in [7] and 6.95 µM (active) in experiment [8]. Moreover, the IC50 in [4] is 5.6 µM (active).
On to `O=C(C[n+]1cc(Br)cc2ccccc21)c1ccc(Br)cc1`, for which the IC50 in experiment [2] was 11.4 µM (active).
By CC50 is commonly meant the concentration that lowers cell viability or growth by half. Consider `CC(c1ccccc1)n1c(-c2cccs2)nc2c(c(=O)c3ccccc3n2C)c1=O` (stereo not drawn), for which, in experiment [9], the CC50 is > 25 µM (active).
In the case of `Cc1cc(SCc2cc(=O)n3ccsc3n2)nc2ccccc12`, the IC50 in experiment [2] was 13.2 µM (active).
The same measure, in the same setting: in the case of `O=C(O)c1[nH]c2ccc(Cl)cc2c1CC(=O)N1CCN(c2ccccc2)CC1` it was 13.2 µM (active).
With `COc1ccc(N(C(=O)c2snc(C(N)=O)c2N)C(C(=O)NC2CCCC2)c2ccc3ncccc3c2)cc1` (stereo not drawn), in [3], the IC50 is > 20 µM (inactive).
Same read-out and setting: in the case of `COc1ccc(NC(=O)CSc2nc3ccsc3c(=O)n2CCCCCC(=O)O)cc1` it was > 20 µM (inactive).
As to `CC1CCN(CCCNC(=O)c2ccc3c(Cl)c4c(nc3c2)CCCC4)CC1`, the CC50 in [9] was > 25 µM (active).
Regarding `CS(=O)(=O)c1sc2nc(-c3ccccc3)cc(-c3ccccc3)c2c1N`, the IC50 in experiment [10] is > 49.8 µM (inactive).
As for `O=C(OCC(=O)N1CCc2ccccc2C1)c1cccc([N+](=O)[O-])c1`, the IC50 is 9.14 µM (active) in [11], 23.1 µM (active) in experiment [12] and 10.9 µM (active) in experiment [13]. Further, the EC50 in [5] is 2.37 µM (active).
`CCN(CC)S(=O)(=O)c1ccc(C(=O)OCC(=O)NCc2ccco2)cc1`: in [6], the IC50 is 11.1 µM (active).
With `CCCC(C(=O)NC(C)(C)C)N(CC1CCCO1)C(=O)c1snc(C(N)=O)c1N` (stereo not drawn), the IC50 in [3] is > 20 µM (inactive).
On to `CC1=C(C(=O)OCCOc2ccccc2)C(c2ccsc2)NC(=O)N1C` (stereo not drawn), for which, in experiment [2], the IC50 was 13.2 µM (active).
Consider `Cc1cc2[nH]c3ccccc3c2c(C)n1`, for which, in [5], the EC50 was 1.68 µM (active).
With `COCCN(C(=O)Cn1nnc2ccccc21)C(C(=O)NC1CCCCC1)c1ccc(OC)cc1OC` (stereo not drawn), the IC50 in [6] is 14.9 µM (active).
For the molecule `Cc1ccc(Sc2ccc(CO)cc2[N+](=O)[O-])cc1`, the EC50 in experiment [5] is 3.35 µM (active).
In the case of `CCNc1nc(NCC)n2c(SCC(=O)Nc3cccc(Cl)c3)nnc2n1`, the IC50 in experiment [6] was 16.2 µM (active).
On the same count and under the same terms, the result for `COc1ccc(S(=O)(=O)c2cnc(S)nc2O)cc1Cl` reads 8.64 µM (active).
Consider `CCOC(=O)N1CCN(C(=O)c2ccc3c(c2)N(Cc2ccc(F)cc2)CCS3)CC1`, for which the IC50 in [3] is > 20 µM (inactive).
The term AC50 denotes the concentration at which the activity in the assay is half-maximal. Turning to `CC(C)CC1C(=O)N(Cc2cn(CC3CCCCC3)nn2)CCS(=O)(=O)N1Cc1ccc(-c2ccc(F)nc2)cc1` (stereo not drawn), the AC50 in experiment [14] was 32.8 µM (active). In experiment [9], the CC50 was 19.6 µM (active).
By GI50 is commonly meant the concentration giving 50% growth inhibition. For `C=C1C(=O)OC2CC(C)C3C4OC4C(O)C3(C)C(O)C12` (stereo not drawn), the GI50 is 8.85 µM (inactive) in experiment [15], 8.02 µM (inactive) in experiment [16] and 24.8 µM (inactive) in [17].
As to `COC(=O)C1=CC[C@@H]2C(C(=O)O)=CO[C@@H](OC3OC(CO)C(O)C(O)C3O)[C@H]12` (stereo partly drawn), the GI50 was > 139 µM (inactive) in experiment [15], > 300 µM (inactive) in [16] and > 300 µM (inactive) in experiment [17].
Take `CCC/C=C/C=C\C(=O)O[C@@H]1[C@@H](C)[C@]2(O)[C@@H]3C=C(C)C(=O)[C@H]3CC(COC(C)=O)=C[C@H]2[C@@H]2C(C)(C)[C@]12OC(C)=O`: the GI50 in [15] is 1.79 µM (inactive); in [16], 1.12 µM (inactive); in [17] it was 1.98 µM (inactive).
As for `N#Cc1ccc(NC(=O)COC(=O)C2CCC2)cc1`, the AC50 in [18] was 21.7 µM (active).
With `COc1cccc(S(=O)(=O)N(C)C[C@H]2Oc3cc(C4=CCCCC4)ccc3S(=O)(=O)N([C@H](C)CO)C[C@H]2C)c1`, the AC50 was 2.06 µM (active) in [19] and 0.409 µM (active) in [20].
Take `Oc1ccc(/C=N/Nc2nc(-c3cccnc3)nc3ccccc23)c(O)c1`: in [4], the IC50 is recorded as 52.8 µM (not active).
